For test [1], the system named is HUVECs. As to the kind of experiment: Angiogenic activity assay on BME-coated wells, stressed HUVECs. It is filed as cell-based, human. As for the experimental part:
(§1) Low passage HUVECs were grown under stressed (serum starved; 0.5% FBS) conditions for 16 h in endothelial basal medium (EBM) and then harvested and resuspended in complete medium containing 10% FBS.
(§2) Cells were seeded (5×10^4 cells per well) in wells coated with growth factor-reduced Cultrex basement membrane extract (BME; Trevigen Gaithersburg, MD, USA) and left untreated (NT) or treated with 10 ng/ml of GST, p24, p17 or each p17-derived peptide F1 to F8.
Data are the means±SD of three independent experiments with similar results.
Statistical analysis was performed by one-way ANOVA and the Bonferroni post-test was used to compare data (***P<0.001).

Test [2] concerns HUVECs. Description: Angiogenic activity assay under normal and stressed condition. It is filed as cell-based, human. The conditions noted are these: 10 ng/ml. The method, then:
Low passage HUVECs were grown under normal (10% FBS) or stressed (serum starved; 0.5% FBS) conditions for 16 h in endothelial basal medium (EBM) and then harvested and resuspended in complete medium containing 10% FBS. […]
An EPO-derived 11 amino acids-long peptide (EPO peptide—SEQ ID No. 10) and a F3-derived 16 amino acids-long peptide (F3S—SEQ ID No. 9) were synthetized and tested at 10 ng/ml for their angiogenic activity under the same procedure of Example 7.

Test [3] deals with full-thickness excisional skin wounds. Description: In vivo wound-healing assay in diabetic mice. The arrangement: species or system spontaneously diabetic (db/db) mice. To be noted: db/db mice, topical daily, 1.0 μg/50 μL days 0 to 7 and 10 μg/50 μL days 8 to 13; days 8 to 14 (p≤0.035). From the text: Patients with diabetes are prone to impaired wound healing, with foot ulceration being particularly prevalent. This delay in wound healing also extends to animal models of diabetes. The impact of the EPO peptide (DSRVLERYLLE, corresponding to SEQ ID No. 10) on wound healing was therefore investigated by in vivo experiments on spontaneously diabetic (db/db) mice (i.e., BKS.Cg-m Dock7^m+/+Lepr^db/J mice).
In this study, the healing of full-thickness excisional skin wounds on the flanks of diabetic mice in receipt of the EPO peptide was compared to that of wounds in receipt of negative control (Water for Injection) treatment. The overall wound closure (i.e. the reduction in open wound area) was determined over time by taking scaled wound images of each wound at each assessment point.
EPO Peptide (DFL24435) was solubilized at 200 μg/mL (10 μg per 50 μL) in sterile water for injection, aliquoted into 100 μL volumes, stored at −20° C., defrosted on the day of use and diluted as necessary.
The animals were divided in a control group, that was treated with water for injection, and a EPO peptide group, that was treated with the peptide. Treatment was carried out once a day on post-wounding days 0 to 13 and the animals were sacrificed on day 14. […]

The subject of test [4] is HUVECs. As to the kind of experiment: Angiogenic activity assay with CXCR1 and CXCR2 inhibition. The conditions noted are these: stressed HUVECs, peptide 10 ng/ml, preincubation 1 hour with 2.5 μg/ml mAb. Format: cell-based, human. The method, then: as §1
Cells were seeded (5×10^4 cells per well) in wells coated with growth factor-reduced Cultrex basement membrane extract (BME; Trevigen Gaithersburg, MD, USA) and left untreated (NT) or treated with 10 ng/ml of each p17-derived peptide F1 or F2, after preincubation for 1 hour at 37° C. with 2.5 μg/ml of a control isotype-matched mAb (Ctrl mAb), a neutralizing mAb to CXCR1 and/or a neutralizing mAb to CXCR2.

In a further test the test system is aortic rings. Description: Rat aortic ring assay (ex vivo). It is filed as cell-based, Sprague-Dawley rats. The conditions noted are these: 10 days. The method, then: Briefly, the dorsal aorta was excised from 6-wk-old Sprague-Dawley rats. Rings, 1-mm thick, were embedded in collagen gel and then incubated with serum-free EBM containing PBS, peptide F2 (10 ng/ml), peptide F3 (10 ng/ml), or FGF-2 (50 ng/ml) (Thermo Fisher Scientific, Rodano, Italy). The plates were incubated for 10 days and angiogenesis was quantified by counting the number of microvessels originating from aortic rings.

The target in a further test is CXCR2 (Homo sapiens, UniProt P25025). The conditions noted are these: He W et al. 2019; cited from earlier work.
Sequence of CXCR2 (P25025 whole entry): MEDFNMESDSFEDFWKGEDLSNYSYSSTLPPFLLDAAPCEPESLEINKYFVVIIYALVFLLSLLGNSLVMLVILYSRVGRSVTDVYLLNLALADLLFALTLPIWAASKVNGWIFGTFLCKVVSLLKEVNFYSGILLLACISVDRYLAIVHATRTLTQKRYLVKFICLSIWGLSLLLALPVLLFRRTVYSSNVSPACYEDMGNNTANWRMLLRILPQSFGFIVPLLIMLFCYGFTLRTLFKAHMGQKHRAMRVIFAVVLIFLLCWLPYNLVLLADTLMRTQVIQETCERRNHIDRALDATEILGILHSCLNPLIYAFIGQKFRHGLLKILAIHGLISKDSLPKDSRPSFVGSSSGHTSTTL
The conditions of test [5]: He W et al. 2019; cited from earlier work.
For the next test, the system named is HMVEC-Ls. As to the kind of experiment: Angiogenic activity assay on HMVEC-Ls. Format: cell-based, human. To be noted: HMVEC-Ls (lung). The method, then: (§3) Human aortic endothelial cells (HAECs) and Human lung microvascular endothelial cells (HMVEC-Ls) were purchased from Clonetics (San Diego, CA, USA) and cultured in EGM-2MV (Lonza) containing 10% (vol/vol) FBS.
as §1, §2
(§4) Similar results were obtained by using human ECs derived from different origin, such as aorta (HAECs), lung (HMVEC-Ls) and lymph node (LN-LECs) (FIGS. 3, 4 and 5, respectively).

A further test has as its system LN-LECs. As to the kind of experiment: Angiogenic activity assay on LN-LECs. Format: cell-based, human. To be noted: LN-LECs (lymph node). The method, then:
Human primary lymph node-derived endothelial cells (LN-LECs) have been developed and characterized as described in Norder et al, FASEB J, 2012; 26:2835-2846.
LN-LECs were cultured in EGM (Lonza) containing 10% FBS and supplemented with VEGF-C (25 ng/ml) (Reliatech, Wolfenbuettel, Germany).
as §1, §2, §4

For test [6], the system named is HUVECs. Description: Wound-healing assay (EC migration). Format: cell-based, human. The conditions noted are these: 10 ng/ml; for effect on HUVEC migration: 12 h; for healing: after 12 h of culture. As for the experimental part:
The involvement of peptide F2 and F3 in promoting EC migration was evaluated by performing a wound healing assay.
HUVECs were plated on 24-well plates (10^5 cells per well) in complete medium containing 10% FBS. Confluent monolayers were nutrient starved for 16 h and then scratched using a 200 μI pipette tip. After being washed, cells were left untreated or treated with 10 ng/ml of GST, p24, p17, or each p17-derived peptide F1 to F8.

Another test relates to endothelial cells. As to the kind of experiment: Involvement of autophagy-based pathway in angiogenic activity. It is filed as cell-based.
Another test addresses CXCR1 (Homo sapiens, UniProt P25024). The conditions noted are these: He W et al. 2019; cited from earlier work.
The subject of test [7] is chick chorioallantoic membrane (CAM). As to the kind of experiment: Chick chorioallantoic membrane (CAM) assay. It is filed as in vivo, White Leghorn chicken. To be noted: 100 ng on gelatin sponge, day 12. The method, then: The vasculogenic activity of peptide F2 and F3 was further characterized by in vivo experiments by using the chick chorioallantoic membrane (CAM) assay.
Fertilized White Leghorn chicken eggs (30 per group) were incubated at 37° C. at constant humidity. On day 3, a square window was opened in the shell, and 2-3 ml of albumin was removed to allow detachment of the developing CAM. The window was sealed with a glass, and the eggs were returned to the incubator. On day 8, eggs were treated with 1 mm 3 sterilized gelatin sponges (Gelfoam; Upjohn, Kalamazoo, MI, USA) placed on top of the growing CAM, as described in Ribatti D et al, Nat Protoc, 2006; 1:85-91, and loaded with 1 μl of PBS (negative control), 1 μl of PBS containing 100 ng of peptide F2 or F3. CAMs were examined daily until day 12 and photographed in ovo with a stereomicroscope equipped with a camera and image analyzer system (Olympus, Hamburg, Germany). At day 12, the angiogenic response was evaluated by the image analyzer system and counted as the number of vessels converging toward the sponge.

In a further test the test system is HAECs. Description: Angiogenic activity assay on HAECs. The conditions noted are these: HAECs (aorta). Format: cell-based, human. The method, then:
as §3, §1, §2, §4

A further test concerns B cell. The conditions noted are these: He W et al. 2019; cited from earlier work.
Where [8] appears, read: HUVECs, as example 2, 10 ng of the peptide.
Where [9] appears, read: normal (10% FBS) culture conditions.
The mark [10] stands for this setting: stressed (serum starved; 0.5% FBS) conditions.
The mark [11] stands for this setting: HUVECs stressed (serum starved; 0.5% FBS) 16 h, 10 ng/ml.

Sequence of CXCR1 (P25024 whole entry): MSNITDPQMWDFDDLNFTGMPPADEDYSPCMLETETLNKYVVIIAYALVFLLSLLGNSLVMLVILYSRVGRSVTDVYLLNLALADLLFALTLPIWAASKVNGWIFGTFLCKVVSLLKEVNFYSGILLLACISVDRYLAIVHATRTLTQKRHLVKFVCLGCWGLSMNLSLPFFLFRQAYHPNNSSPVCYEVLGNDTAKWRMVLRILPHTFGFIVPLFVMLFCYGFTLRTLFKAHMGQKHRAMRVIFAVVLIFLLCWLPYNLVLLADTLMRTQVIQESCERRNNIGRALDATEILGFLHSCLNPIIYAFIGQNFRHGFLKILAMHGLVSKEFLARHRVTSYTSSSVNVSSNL

Regarding AANELDRF [SIVcpz-derived peptide], the angiogenic activity entry in the test on HUVECs [1] (setting [8]) is reported as “able to significantly promote angiogenesis”.

Consider AANELDRFLLE [SIVcpz-derived peptide], for which, in the test on HUVECs [1] (setting [8]), the angiogenic activity entry is given as “able to significantly promote angiogenesis”.

As to ASRELERF (ASRELERFLLE), the angiogenic activity entry in the test on HUVECs [1] (setting [8]) was “able to significantly promote angiogenesis”.

For ASRELERFACNPELLE [peptide gor], in the test with HUVECs [1] (setting [8]), the angiogenic activity entry is given as “able to significantly promote angiogenesis”.

For ASRELERFACNPGLME [peptide cpz], in the test on HUVECs [1] (setting [8]), the angiogenic activity entry was “able to significantly promote angiogenesis”.

Regarding “ASRELERFAVNPGLLE [Peptide F3S, F3-derived 16 amino acids-long peptide]”, the angiogenic activity result in the test with HUVECs [2] (setting [9]) and in the test with HUVECs [2] (setting [10]) was “potent angiogenic activity” each time.

On to ASRELERFLLE, for which the angiogenic activity result with HUVECs [1] (setting [8]) is given as “able to significantly promote angiogenesis”.

Regarding “DSRVLERYLLE [EPO peptide, EPO-derived 11 amino acids-long peptide]”, the angiogenic activity result in the test on HUVECs [2] (setting [9]) and in the test on HUVECs [2] (setting [10]) was “potent angiogenic activity” in each case. Besides, in [3], the “wound closure (reduction in open wound area) compared to vehicle” value is “significantly increased closure”.

For the substance EKIRLRPGGKKKYKLKHIVW [Peptide F2], the angiogenic activity entry is listed as “promoting angiogenesis under stress condition only” in the test on HUVECs [2] (setting [9]); “potent angiogenic activity” in the test on HUVECs [2] (setting [10]); “endowed with angiogenic activity” in the test with HUVECs [1] (setting [11]); “potent angiogenic activity” in the test with HMVEC-Ls; “potent angiogenic activity” with LN-LECs; “potent angiogenic activity” with HAECs. The “effect of neutralizing mAb to CXCR1 and CXCR2 on peptide-induced angiogenesis” value in the test on HUVECs [4] is on record as “inhibitory”. Moreover, in the test with aortic rings (10 ng/ml), the “number of microvessels originating from aortic rings” value (shortened to “number of microvessels originating”) is given as 55±5. In addition, on CXCR2, the “binding to CXCR2 receptor” value is given as “capable to bind”. Also, the binding to heparin entry in [5] is given as “capable to bind”. In the test on HUVECs [6], the “effect on HUVEC migration” value was “comparable to that exerted by p17”. The substance further gave a healing with HUVECs [6] of around 100%. Also, the “involvement of autophagy-based pathway in angiogenic activity” value in the test with endothelial cells is “involves an autophagy-based pathway”. Besides, the “binding to CXCR1 receptor” value at CXCR1 is recorded as “capable to bind”. Moreover, in test [7], the “mean number of vessels converging toward the sponge” value is 27±4.

“FGF-2: FGF-2 (Thermo Fisher Scientific), positive control in aortic ring assay [reference compound]”: the “number of microvessels originating” value in the test with aortic rings (50 ng/ml) turned out to be 84±6.

Regarding “GARASVLSGGELDRWEKIRL [Peptide F1, p17-derived peptide, aminoacids 2 to 21 of p17]”, in the test with B cell, the “B cell growth promoting activity” value is reported as “endowed with cell growth promoting activity”.

As for “KHIVWASRELERFAVNPGLL [Peptide F3, p17-derived 20 amino acid peptide]”, the angiogenic activity result with HUVECs [2] (setting [9]) was “promote angiogenesis”; in the test on HUVECs [2] (setting [10]), “potent angiogenic activity”; in the test with HUVECs [1] (setting [11]), “endowed with angiogenic activity”; in the test with HMVEC-Ls, “potent angiogenic activity”; in the test on LN-LECs, “potent angiogenic activity”; in the test on HAECs, “potent angiogenic activity”. Besides, in the test with HUVECs [4], the “effect of neutralizing mAb to CXCR1 and CXCR2 on peptide-induced angiogenesis” value was “did not impair”. Moreover, the “number of microvessels originating” value in the test with aortic rings (10 ng/ml) was determined as 46±8. For the same substance, the “effect on HUVEC migration” value in the test with HUVECs [6] was “comparable to that exerted by p17”. This substance showed a healing in the test on HUVECs [6] of around 100%. In addition, the “involvement of autophagy-based pathway in angiogenic activity” value in the test with endothelial cells was “independent from autophagy”. In test [7], the “mean number of vessels converging toward the sponge” value came to 30±3.

Turning to “glutathione S-transferase [GST, reference compound]”, the angiogenic activity entry in the test with HUVECs [1] (setting [11]) was “did not induce any pro-angiogenic activity”. For the same substance, the “effect on HUVEC migration” value with HUVECs [6] was “did not exert any effect”.
